Experiments:
[1] = system: Tyrosine-protein kinase ABL1 (Homo sapiens), P00519 [F317I]; details: Compound concentration 1000.0 nM
[2] = system: Tyrosine-protein kinase ABL1 (Homo sapiens), P00519 [H396P]; details: Compound concentration 1000.0 nM
[3] = biological target: Mitogen-activated protein kinase kinase kinase 5 (Homo sapiens) (UniProt Q99683); details: Compound concentration 1000.0 nM
[4] = biological target: Cyclin-dependent kinase 11B (Homo sapiens) (UniProt P21127); details: Compound concentration 1000.0 nM
[5] = biological target: Cyclin-dependent kinase 3 (Homo sapiens) (UniProt Q00526); details: Compound concentration 1000.0 nM
[6] = biological target: Macrophage colony-stimulating factor 1 receptor (Homo sapiens) (UniProt P07333); details: Compound concentration 1000.0 nM
Macrophage colony-stimulating factor 1 receptor (Homo sapiens), sequence (P07333 whole entry): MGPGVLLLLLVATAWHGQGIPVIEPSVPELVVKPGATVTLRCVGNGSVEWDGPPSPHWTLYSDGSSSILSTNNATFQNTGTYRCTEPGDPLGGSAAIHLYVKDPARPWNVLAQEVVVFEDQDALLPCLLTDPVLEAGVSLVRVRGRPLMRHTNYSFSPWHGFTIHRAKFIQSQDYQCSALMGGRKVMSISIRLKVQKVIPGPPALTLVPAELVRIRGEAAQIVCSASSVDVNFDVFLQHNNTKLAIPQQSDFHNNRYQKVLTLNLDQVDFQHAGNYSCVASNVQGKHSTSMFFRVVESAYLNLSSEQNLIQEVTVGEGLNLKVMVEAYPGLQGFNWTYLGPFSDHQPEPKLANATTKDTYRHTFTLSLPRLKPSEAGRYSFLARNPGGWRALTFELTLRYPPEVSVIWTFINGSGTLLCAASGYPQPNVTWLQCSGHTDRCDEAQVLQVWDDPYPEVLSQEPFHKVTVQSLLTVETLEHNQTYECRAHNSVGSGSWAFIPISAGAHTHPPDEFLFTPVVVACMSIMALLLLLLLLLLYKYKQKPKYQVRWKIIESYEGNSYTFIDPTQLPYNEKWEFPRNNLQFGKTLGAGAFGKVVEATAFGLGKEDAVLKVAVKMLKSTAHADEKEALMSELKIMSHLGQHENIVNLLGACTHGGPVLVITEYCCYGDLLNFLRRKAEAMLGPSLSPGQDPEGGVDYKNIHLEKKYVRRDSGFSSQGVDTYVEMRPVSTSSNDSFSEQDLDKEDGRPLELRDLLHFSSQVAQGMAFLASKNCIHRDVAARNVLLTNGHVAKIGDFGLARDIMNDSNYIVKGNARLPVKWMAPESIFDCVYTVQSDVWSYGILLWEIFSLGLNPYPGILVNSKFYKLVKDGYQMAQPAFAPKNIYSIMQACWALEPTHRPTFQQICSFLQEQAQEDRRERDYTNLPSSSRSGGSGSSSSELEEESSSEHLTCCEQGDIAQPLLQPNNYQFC

[7] = biological target: Macrophage colony-stimulating factor 1 receptor (Homo sapiens) (UniProt P07333); details: Compound concentration 1000.0 nM; remark: listed apart in the source
[8] = system: Epidermal growth factor receptor (Homo sapiens), P00533 [L861Q]; details: Compound concentration 1000.0 nM
[9] = biological target: Ephrin type-A receptor 8 (Homo sapiens) (UniProt P29322); details: Compound concentration 1000.0 nM
[10] = system: Receptor-type tyrosine-protein kinase FLT3 (Homo sapiens), P36888 [UNDEFINED MUTATION]; details: Compound concentration 1000.0 nM
[11] = biological target: G protein-coupled receptor kinase 4 (Homo sapiens) (UniProt P32298); details: Compound concentration 1000.0 nM
[12] = biological target: Inhibitor of nuclear factor kappa-B kinase subunit beta (Homo sapiens) (UniProt O14920); details: Compound concentration 1000.0 nM
[13] = biological target: Tyrosine-protein kinase JAK1 (Homo sapiens) (UniProt P23458); details: Compound concentration 1000.0 nM
[14] = biological target: Mitogen-activated protein kinase 9 (Homo sapiens) (UniProt P45984); details: Compound concentration 1000.0 nM
[15] = biological target: Mast/stem cell growth factor receptor Kit (Homo sapiens) (UniProt P10721); details: Compound concentration 1000.0 nM
[16] = biological target: Leucine-rich repeat serine/threonine-protein kinase 2 (Homo sapiens) (UniProt Q5S007); details: Compound concentration 1000.0 nM
[17] = biological target: Mitogen-activated protein kinase kinase kinase 1 (Homo sapiens) (UniProt Q13233); details: Compound concentration 1000.0 nM
[18] = system: Hepatocyte growth factor receptor (Homo sapiens), P08581 [Y1235D]; details: Compound concentration 1000.0 nM
[19] = biological target: Serine/threonine-protein kinase Nek2 (Homo sapiens) (UniProt P51955); details: Compound concentration 1000.0 nM
[20] = biological target: Serine/threonine-protein kinase Nek6 (Homo sapiens) (UniProt Q9HC98); details: Compound concentration 1000.0 nM
[21] = biological target: Calcium-dependent protein kinase 1 (Plasmodium falciparum) (UniProt P62344); details: Compound concentration 1000.0 nM
Calcium-dependent protein kinase 1 (Plasmodium falciparum), sequence (P62344 2-524 limits assumed): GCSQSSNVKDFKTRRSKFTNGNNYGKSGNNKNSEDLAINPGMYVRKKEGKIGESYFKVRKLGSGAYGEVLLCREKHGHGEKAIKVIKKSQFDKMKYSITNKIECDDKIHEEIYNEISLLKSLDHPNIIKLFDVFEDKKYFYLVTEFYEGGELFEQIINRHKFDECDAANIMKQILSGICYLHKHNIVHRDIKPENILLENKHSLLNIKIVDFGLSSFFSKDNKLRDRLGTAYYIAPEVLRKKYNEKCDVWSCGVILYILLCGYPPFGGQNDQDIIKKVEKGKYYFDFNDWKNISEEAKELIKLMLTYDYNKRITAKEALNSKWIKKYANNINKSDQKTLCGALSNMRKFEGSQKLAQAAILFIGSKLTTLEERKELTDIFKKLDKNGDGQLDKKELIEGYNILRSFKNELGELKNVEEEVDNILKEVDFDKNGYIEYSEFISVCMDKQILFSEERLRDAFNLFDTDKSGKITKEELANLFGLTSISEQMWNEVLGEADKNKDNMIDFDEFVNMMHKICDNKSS

[22] = biological target: Cyclin-dependent kinase 2 homolog (Plasmodium falciparum (isolate 3D7)) (UniProt P61075); details: Compound concentration 1000.0 nM
[23] = biological target: Phosphatidylinositol 4,5-bisphosphate 3-kinase catalytic subunit delta isoform (Homo sapiens) (UniProt O00329); details: Compound concentration 1000.0 nM
[24] = biological target: cAMP-dependent protein kinase catalytic subunit alpha (Homo sapiens) (UniProt P17612); details: Compound concentration 1000.0 nM
[25] = biological target: Serine/threonine-protein kinase PLK2 (Homo sapiens) (UniProt Q9NYY3); details: Compound concentration 1000.0 nM
[26] = biological target: Serine/threonine-protein kinase PLK4 (Homo sapiens) (UniProt O00444); details: Compound concentration 1000.0 nM
Serine/threonine-protein kinase PLK4 (Homo sapiens), sequence (O00444 whole entry): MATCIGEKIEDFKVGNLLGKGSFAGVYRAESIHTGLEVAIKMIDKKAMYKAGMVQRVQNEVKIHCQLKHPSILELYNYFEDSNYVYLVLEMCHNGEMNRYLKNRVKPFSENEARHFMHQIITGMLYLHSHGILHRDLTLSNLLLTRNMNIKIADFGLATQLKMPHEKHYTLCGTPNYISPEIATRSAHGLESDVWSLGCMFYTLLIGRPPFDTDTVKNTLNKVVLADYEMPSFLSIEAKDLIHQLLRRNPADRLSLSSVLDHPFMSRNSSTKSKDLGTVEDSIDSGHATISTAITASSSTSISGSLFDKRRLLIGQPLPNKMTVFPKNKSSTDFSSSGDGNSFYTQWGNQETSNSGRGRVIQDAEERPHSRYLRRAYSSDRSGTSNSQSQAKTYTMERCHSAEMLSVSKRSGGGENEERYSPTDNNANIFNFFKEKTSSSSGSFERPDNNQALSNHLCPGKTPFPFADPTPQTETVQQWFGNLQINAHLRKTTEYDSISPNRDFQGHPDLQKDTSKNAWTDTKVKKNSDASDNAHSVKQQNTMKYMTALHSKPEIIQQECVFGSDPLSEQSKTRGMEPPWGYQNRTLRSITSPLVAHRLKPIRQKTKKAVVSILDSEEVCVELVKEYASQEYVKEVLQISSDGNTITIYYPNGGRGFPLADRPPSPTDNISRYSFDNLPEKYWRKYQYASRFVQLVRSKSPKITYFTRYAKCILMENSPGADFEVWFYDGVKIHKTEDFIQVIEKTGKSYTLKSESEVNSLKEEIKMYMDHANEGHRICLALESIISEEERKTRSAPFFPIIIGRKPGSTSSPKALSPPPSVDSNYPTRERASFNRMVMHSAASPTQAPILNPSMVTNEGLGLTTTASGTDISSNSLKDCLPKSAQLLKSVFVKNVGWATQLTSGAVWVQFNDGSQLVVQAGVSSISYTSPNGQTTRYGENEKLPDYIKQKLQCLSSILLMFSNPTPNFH

[27] = biological target: Serine/threonine-protein kinase SIK3 (Homo sapiens) (UniProt Q9Y2K2); details: Compound concentration 1000.0 nM
Serine/threonine-protein kinase SIK3 (Homo sapiens), sequence (Q9Y2K2 whole entry, looked up): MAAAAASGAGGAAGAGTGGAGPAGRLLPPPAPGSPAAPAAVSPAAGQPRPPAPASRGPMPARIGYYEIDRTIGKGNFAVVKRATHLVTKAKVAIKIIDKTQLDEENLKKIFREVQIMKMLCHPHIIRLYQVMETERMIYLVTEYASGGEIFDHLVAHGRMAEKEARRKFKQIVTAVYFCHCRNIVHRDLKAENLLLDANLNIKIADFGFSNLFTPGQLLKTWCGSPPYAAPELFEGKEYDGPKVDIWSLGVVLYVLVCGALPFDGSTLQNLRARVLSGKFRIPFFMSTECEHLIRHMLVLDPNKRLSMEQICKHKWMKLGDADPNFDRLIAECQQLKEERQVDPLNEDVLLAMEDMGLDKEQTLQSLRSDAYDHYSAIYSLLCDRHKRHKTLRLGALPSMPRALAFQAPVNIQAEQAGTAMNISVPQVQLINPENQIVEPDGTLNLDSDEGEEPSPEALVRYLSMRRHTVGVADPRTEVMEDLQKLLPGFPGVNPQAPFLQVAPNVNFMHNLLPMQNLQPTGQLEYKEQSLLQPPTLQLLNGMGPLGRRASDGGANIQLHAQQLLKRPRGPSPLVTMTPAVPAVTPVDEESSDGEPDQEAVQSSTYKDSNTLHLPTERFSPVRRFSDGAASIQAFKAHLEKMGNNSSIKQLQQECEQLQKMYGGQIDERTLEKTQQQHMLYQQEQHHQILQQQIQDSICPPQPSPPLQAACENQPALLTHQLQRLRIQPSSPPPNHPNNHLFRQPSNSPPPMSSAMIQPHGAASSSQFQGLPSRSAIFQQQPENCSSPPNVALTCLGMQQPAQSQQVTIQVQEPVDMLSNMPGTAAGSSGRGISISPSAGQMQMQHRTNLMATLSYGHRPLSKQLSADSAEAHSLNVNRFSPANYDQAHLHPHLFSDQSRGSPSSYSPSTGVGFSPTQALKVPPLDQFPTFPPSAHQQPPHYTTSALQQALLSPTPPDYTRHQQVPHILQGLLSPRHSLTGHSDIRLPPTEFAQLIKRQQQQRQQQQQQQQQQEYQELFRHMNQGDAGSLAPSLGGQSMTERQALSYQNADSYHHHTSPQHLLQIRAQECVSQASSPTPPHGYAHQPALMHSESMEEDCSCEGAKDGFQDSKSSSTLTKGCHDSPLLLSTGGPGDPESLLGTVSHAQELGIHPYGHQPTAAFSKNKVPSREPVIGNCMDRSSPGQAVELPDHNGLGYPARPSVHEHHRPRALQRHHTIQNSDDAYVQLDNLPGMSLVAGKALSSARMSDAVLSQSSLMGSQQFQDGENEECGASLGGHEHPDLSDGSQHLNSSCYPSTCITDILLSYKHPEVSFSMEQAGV

[28] = biological target: Serine/threonine-protein kinase RIO1 (Homo sapiens) (UniProt Q9BRS2); details: Compound concentration 1000.0 nM
[29] = biological target: Receptor-interacting serine/threonine-protein kinase 1 (Homo sapiens) (UniProt Q13546); details: Compound concentration 1000.0 nM
[30] = biological target: Receptor-interacting serine/threonine-protein kinase 4 (Homo sapiens) (UniProt P57078); details: Compound concentration 1000.0 nM
Receptor-interacting serine/threonine-protein kinase 4 (Homo sapiens), sequence (P57078 whole entry): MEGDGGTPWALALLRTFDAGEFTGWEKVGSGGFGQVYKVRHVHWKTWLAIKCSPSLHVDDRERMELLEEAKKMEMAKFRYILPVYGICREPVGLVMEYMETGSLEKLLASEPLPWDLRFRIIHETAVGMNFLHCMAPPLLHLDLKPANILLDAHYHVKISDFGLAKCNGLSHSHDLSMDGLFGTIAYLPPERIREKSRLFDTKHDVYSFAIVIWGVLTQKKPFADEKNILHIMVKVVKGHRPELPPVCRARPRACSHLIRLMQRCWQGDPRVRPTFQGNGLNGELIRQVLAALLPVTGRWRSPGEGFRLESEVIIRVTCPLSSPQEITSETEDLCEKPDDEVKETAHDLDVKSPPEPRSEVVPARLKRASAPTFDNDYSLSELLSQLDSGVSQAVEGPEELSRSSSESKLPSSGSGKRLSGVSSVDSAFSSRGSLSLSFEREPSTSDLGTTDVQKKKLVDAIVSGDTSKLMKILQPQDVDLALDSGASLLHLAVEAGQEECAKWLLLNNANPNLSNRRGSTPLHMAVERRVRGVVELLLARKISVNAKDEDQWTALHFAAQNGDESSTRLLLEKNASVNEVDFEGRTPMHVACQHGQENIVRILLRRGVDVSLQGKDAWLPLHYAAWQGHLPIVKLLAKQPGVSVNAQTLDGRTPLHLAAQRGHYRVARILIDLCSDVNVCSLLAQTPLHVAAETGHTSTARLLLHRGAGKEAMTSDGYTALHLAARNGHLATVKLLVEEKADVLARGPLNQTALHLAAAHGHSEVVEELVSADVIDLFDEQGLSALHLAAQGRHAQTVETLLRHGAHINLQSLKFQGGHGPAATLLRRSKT

[31] = biological target: Dual serine/threonine and tyrosine protein kinase (Homo sapiens) (UniProt Q6XUX3); details: Compound concentration 1000.0 nM
[32] = biological target: Serine/threonine-protein kinase SIK1 (Homo sapiens) (UniProt P57059); details: Compound concentration 1000.0 nM
[33] = biological target: Serine/threonine-protein kinase 35 (Homo sapiens) (UniProt Q8TDR2); details: Compound concentration 1000.0 nM
[34] = biological target: Serine/threonine-protein kinase 36 (Homo sapiens) (UniProt Q9NRP7); details: Compound concentration 1000.0 nM
[35] = biological target: Mu-type opioid receptor (Homo sapiens) (UniProt P35372); details: Compound concentration 10.0 uM
Mu-type opioid receptor (Homo sapiens), sequence (P35372 whole entry): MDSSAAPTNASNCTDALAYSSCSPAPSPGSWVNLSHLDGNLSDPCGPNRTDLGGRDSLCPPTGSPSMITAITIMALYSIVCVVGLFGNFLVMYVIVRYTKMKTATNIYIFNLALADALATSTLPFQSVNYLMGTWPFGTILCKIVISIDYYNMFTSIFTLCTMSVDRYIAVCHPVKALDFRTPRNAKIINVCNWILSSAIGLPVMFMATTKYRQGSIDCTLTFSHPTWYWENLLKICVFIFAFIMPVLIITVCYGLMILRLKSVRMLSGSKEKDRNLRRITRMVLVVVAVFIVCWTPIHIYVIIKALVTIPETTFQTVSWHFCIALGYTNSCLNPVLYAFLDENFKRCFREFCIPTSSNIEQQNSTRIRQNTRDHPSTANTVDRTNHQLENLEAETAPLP

[36] = biological target: GABA-A receptor; anion channel (Rattus norvegicus) (UniProt O09028+P15431+P18506+P18508+P19969+P20236+P23574+P23576+P28471+P28473+P30191+P62813+P63079+P63138+Q91ZM7+Q9ES14); details: Compound concentration 10.0 uM
[37] = biological target: T1, Muscarinic acetylcholine receptor M2 (Homo sapiens) (UniProt P08172); details: Compound concentration 10.0 uM
T1 sequence (whole entry): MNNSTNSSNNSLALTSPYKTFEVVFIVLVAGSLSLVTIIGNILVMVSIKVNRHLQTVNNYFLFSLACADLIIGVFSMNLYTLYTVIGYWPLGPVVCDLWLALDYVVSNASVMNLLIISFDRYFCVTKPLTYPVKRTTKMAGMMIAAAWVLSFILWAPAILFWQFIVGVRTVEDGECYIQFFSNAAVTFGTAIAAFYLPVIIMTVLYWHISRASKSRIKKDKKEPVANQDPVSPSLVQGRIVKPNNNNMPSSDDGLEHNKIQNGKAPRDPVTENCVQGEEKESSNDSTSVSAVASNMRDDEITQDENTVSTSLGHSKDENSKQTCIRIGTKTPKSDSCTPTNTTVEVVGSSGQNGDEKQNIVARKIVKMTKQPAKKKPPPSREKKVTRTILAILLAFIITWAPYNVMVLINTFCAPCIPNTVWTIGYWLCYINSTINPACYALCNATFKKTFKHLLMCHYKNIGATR

| Compound | residual activity [1] [%] | residual activity [2] [%] | residual activity [3] [%] | residual activity [4] [%] | residual activity [5] [%] | residual activity [6] [%] | residual activity [7] [%] | residual activity [8] [%] | residual activity [9] [%] | residual activity [10] [%] | residual activity [11] [%] | residual activity [12] [%] | residual activity [13] [%] | residual activity [14] [%] | residual activity [15] [%] | residual activity [16] [%] | residual activity [17] [%] | residual activity [18] [%] | residual activity [19] [%] | residual activity [20] [%] | also measured |
| --- | --- | --- | --- | --- | --- | --- | --- | --- | --- | --- | --- | --- | --- | --- | --- | --- | --- | --- | --- | --- | --- |
| O=C(NC[C@@H]1[C@H]2CN(C(=O)OCc3cc(C(F)(F)F)cc(C(F)(F)F)c3)C[C@@H]12)c1ccc2[nH]nnc2c1 [BI 2545] | 89 | 91 | 13 | 100 | 94 | 99 | 95 | 100 | 100 | 88 | 100 | 88 | 100 | 100 | 89 | 91 | 71 | 76 | 100 | 100 | residual activity [21]: 99%; residual activity [22]: 100%; residual activity [23]: 75%; residual activity [24]: 100%; residual activity [25]: 89%; residual activity [26]: 82%; residual activity [27]: 79%; residual activity [28]: 69%; residual activity [29]: 89%; residual activity [30]: 100%; residual activity [31]: 82%; residual activity [32]: 100%; residual activity [33]: 100%; residual activity [34]: 100%; inhibition [35]: 43%; inhibition [36]: 1.13%; inhibition [37]: 7.11% |
| Cc1nccc(COC(=O)N2C[C@@H]3[C@@H](CNC(=O)c4ccc5[nH]nnc5c4)[C@@H]3C2)n1 [BI 3017] | 100 | 85 | 95 | 100 | 97 | 88 | 100 | 100 | 100 | 79 | 100 | 96 | 85 | 95 | 89 | 100 | 85 | 92 | 100 | 100 | residual activity [21]: 100%; residual activity [22]: 85%; residual activity [23]: 85%; residual activity [24]: 88%; residual activity [25]: 82%; residual activity [26]: 83%; residual activity [27]: 100%; residual activity [28]: 100%; residual activity [29]: 86%; residual activity [30]: 98%; residual activity [31]: 69%; residual activity [32]: 98%; residual activity [33]: 83%; residual activity [34]: 92%; inhibition [35]: 12.1%; inhibition [36]: 9.85%; inhibition [37]: -5.6% |

— ChEMBL document CHEMBL4507275, “Data for DCP probe BI-2545” (2021)
